What was measured:
Assay type in all cases: in vivo, healthy volunteers (men and women)
[1] = system: healthy volunteers, of both sexes, 60 to 80 years old; assay: Clinical evaluation of the slackening of the skin, randomized double-blind study versus placebo; settings: for Slackening of the skin of the forearm (clinical score 0 to 9): ventral side of the forearm
Protocol: (§1) The evaluation was carried out using a randomized double-blind clinical study on 70 individuals (35 men and 35 women). The inclusion criteria were as follows: healthy volunteers, of both sexes, free of any severe pathological condition and 60 to 80 years old.
(§2) The treatment consisted, for 12 months, of a daily dose of 50 mg of DHEA, taken in the morning, in the form of a breakable tablet, for half the individuals, or as a placebo for the other half of the individuals.
The slackening of the skin is evaluated clinically, blind, on the ventral side of the forearm and on the skin of the face at the start of treatment (T0) and at the end of treatment (T12), by the same clinician. The slackening of the skin is represented by a clinical score ranging from 0 (slight or hardly noticeable slackening) to 9 (very marked slackening). The statistical analysis is performed using the Wilcoxon test.

[2] = system: healthy volunteers, of both sexes, 60 to 80 years old; assay: Elasticity of the skin measured with the Derma Torque Meter, randomized double-blind study versus placebo; settings: for Elasticity of the skin of the forearm (ratio of extensibility to recovery): ventral side of the forearm
Protocol: as §1, §2
The elasticity of the skin was evaluated with the Derma Torque Meter® (DTM® Dia-Stron Limited, Andover, Hampshire, United Kingdom). The biomechanical properties (elasticity) of the skin of the ventral side of the forearm is measured. The DTM® makes it possible to study the response of the skin to a deformation applied in the direction parallel to its surface. The rotation of a disk stuck to the skin is measured and the elasticity of the skin is thus evaluated, which is one of the best markers of aging (Escoffier C. et al. (1989), J. Invest. Dermatol., 93, 353-357).
The elasticity is expressed as the ratio of extensibility to recovery.
(§3) The statistical analysis is performed using the Wilcoxon test.

[3] = system: healthy volunteers, of both sexes, 60 to 80 years old; assay: Clinical evaluation of the weathered (papyrus-like) appearance of the skin, randomized double-blind study versus placebo; settings: 12 months; for variation in the weathered (papyrus-like) appearance relative to T0 (clinical score 0 to 9): back of a hand, 50 mg/day orally, FIG. 1
Protocol: as §1, §2
The weathered (papyrus-like) appearance is evaluated clinically, blind, on the back of a hand at the start of treatment (T0) and at the end of treatment (T12), by the same clinician.
The weathered (papyrus-like) appearance is represented by a clinical score ranging from 0 (weathered appearance absent or only very slightly noticeable) to 9 (very marked weathered appearance).
as §3

[4] = after treatment with DHEA administered orally, 50 mg/day, 12 months

C[C@]12CC[C@H](O)CC1=CC[C@@H]1[C@@H]2CC[C@]2(C)C(=O)CC[C@@H]12 [DHEA, dehydroepiandrosterone]
Slackening of the skin of the face (clinical score 0 to 9) ([1]; T0 (start of treatment)): 6.69
Slackening of the skin of the forearm (clinical score 0 to 9) ([1]; T0 (start of treatment)): 5.44
Slackening of the skin of the face (clinical score 0 to 9) ([1]; T12 (end of treatment), 50 mg/day orally, 12 months, Wilcoxon P = 0.5): 6.81
Slackening of the skin of the forearm (clinical score 0 to 9) ([1]; T12 (end of treatment), 50 mg/day orally, 12 months, Wilcoxon P = 0.15): 7.19
variation in the slackening of the skin after treatment [1, 4]: do not significantly vary
Elasticity of the skin of the forearm (ratio of extensibility to recovery) ([2]; T0 (start of treatment)): 0.36
Elasticity of the skin of the forearm (ratio of extensibility to recovery) ([2]; T12 (end of treatment), 50 mg/day orally, 12 months, Wilcoxon P = 0.55): 0.31
variation in the elasticity of the skin after treatment [2, 4]: do not significantly vary
variation in the weathered (papyrus-like) appearance relative to T0 (clinical score 0 to 9) ([3]; group of men): avoid this degradation
variation in the weathered (papyrus-like) appearance relative to T0 (clinical score 0 to 9) ([3]; group of women, significant relative to placebo (p=0.005)): decrease in the mean scores
effect on the weathered (papyrus-like) appearance of the skin ([3]; overall conclusion, after oral administration, 50 mg/day): improves the weathered (papyrus-like) appearance of the skin
